Results published in patent publication US7148250B2, “Indoles as NAALADase inhibitors” (Guilford Pharmaceuticals Inc., priority 2001, dated 2006).
Values belong to the compound of their own block, whether it stands above or below them.

Assays:
NAALADase = target: T1, NAALADase (Homo sapiens, UniProt Q04609); assay: In vitro inhibition of NAALADase activity; type: biochemical; conditions: average IC50 values
T1 construct: from tissue; host or cells: unspecified "tissue"
Description: Various compounds of the invention were tested for in vitro inhibition of NAALADase activity.
The following were combined in assay tubes: 100 μL of 10 mM CoCl2, 250 μof 200 mM Tris chloride, 100 μL tissue, 100 μL of 10 mM NAALADase inhibitor in Bakers H2O, and Bakers H2O to make a total volume of 950 μL. Each assay tube was then incubated for 10 minutes in a 37 EC water bath. […] The assay was stopped by adding 1.0 ml of 0.1 M sodium phosphate.
Glutamate released by the action of the NAALADase enzyme was separated from the assay solution using an anion exchange resin. The resin was equilibrated to 25 EC, 2.0 ml of the resin was added to a Pasteur pipette pre-loaded with a single glass bead, and each column was washed twice with distilled H2O. A column was placed over a scintillation vial and 200 μL of an assay sample was loaded onto the column. After draining, glutamate was eluted using two 1.0 ml washes of 1 M formic acid. After addition of 10 ml of scintillation cocktail, each sample was counted for 2 minutes on a scintillation counter.

STZ-diabetic rats [1] = assay: Diabetic neuropathy in STZ model (nerve conduction velocity); type: in vivo, rat
Description: Motor and sensory nerve conduction velocity was also measured in STZ-diabetic animals after 4, 8 and 12 weeks of treatment (see De Koning et al., supra, for a description of the experimental method). Briefly, stimulating needle electrodes were inserted close to the sciatic and tibial nerves with recording electrodes being placed subcutaneously over the distal foot muscles, in anesthetized rats.

STZ-diabetic rats [2] = assay: Neuropathic pain in STZ model (thermal withdrawal latency); type: in vivo, rat; conditions: 10 mg/kg i.p. daily, treatment from 45 days post STZ
Description: Male Sprague-Dawley rats (200–225 g) were rendered diabetic by intravenous administration of streptozotocin (“STZ”, 70 mg/kg in phosphate buffered saline). Diabetic animals were divided into five groups: one group receiving Compound A (10 mg/kg or 1 mg/kg), Compound D (10 mg/kg or 1 mg/kg) or vehicle. Another group of animals (non-STZ treated) served as non-diabetic controls. Drug/vehicle treatment was started in diabetic animals 45 days post-STZ administration. STZ-induced diabetic rats were tested for sensitivity to a heat source as soon as blood glucose levels rose to 320 mg/dl or above (30 days post STZ). The rats were then acclimated to a Hargreaves apparatus and thermal nociception was monitored using an infrared heat source directed into the dorsal surface of the hindpaw, and the time taken for the animal to remove its paw noted to the nearest 0.1 seconds (see Hargreaves et al., supra, for detailed experimental method). The intensity of the beam source was adjusted such that the mean latency for control animals (non-STZ treated) was approximately 10 seconds. Each animal was tested 8 times and the mean difference score (between mean non-diabetic control latency and mean diabetic latency) are graphically presented in FIGS. 7A and 7B.

BB/W diabetic rats = assay: Progression of neuropathic pain and nerve conduction deficits in BB/W model; type: in vivo, rat
From the text: Male BB/W rats (BRI, Mass) spontaneously develop a cell mediated autoimmune destruction of pancreatic B cells, resulting in onset of insulin-dependent (Type I) diabetes (Guberski 1994). […] This renders them valuable for experimental trials of new compounds for future treatments of this major disorder. In the present study, Compound D and Compound A were examined for their ability to alter the progression of diabetic neuropathy. The rats received daily injection of Compound D or Compound A (10 mg/kg i.p.) or vehicle, starting at the onset of diabetes (hyperglycemia) and up to 6 months thereafter. Another group of non-diabetic rats also receiving vehicle were tested. All animals were continuously monitored for body weight, urine volume, blood sugar and glycated haemoglobin. In the first month of the study, all animals were tested for thermal nociception in a Hargreaves apparatus, weekly. After the first month this was done biweekly and then monthly. The testing consists of directing an infrared heat source onto the dorsal surface of the rat hindpaw and noting the time taken for the animal to remove its paw (see Hargreaves et al., supra, for a description of the experimental method). Each animal was tested 8 times and the mean withdrawal latency noted.
Nerve conduction velocity was also measured every two weeks through the first eight weeks of treatment and every month thereafter through to the six months of treatment (see De Koning et al., Peptides, Vol. 8, No. 3, pp. 415–22 (1987) for a description of the experimental method). […] This was apparent starting at 8 weeks of treatment and persisted to a similar degree through to the six month termination point of the study.

STZ-diabetic rats [3] = assay: Reversal of diabetic neuropathy in STZ model, delayed dosing; type: in vivo, rat; conditions: for neuropathic hyperalgesia / motor nerve conduction velocity: daily p.o.; for neuropathic hyperalgesia: treatment from 5 weeks post STZ, within two weeks of treatment; for motor nerve conduction velocity: within 8 weeks of dosing, persisted through 12 weeks
Description: Rats (200–225 grams) were injected with STZ (70 mg/kg) into the tail vein. Diabetes (>350 mg/dl) was confirmed in all rats, 4 weeks after STZ administration. Rats were left untreated until 35–49 days after STZ. Compound D (1, 3, or 10 mg/kg), Compound E (10 mg/kg), or vehicle were dosed daily p.o. following confirmation of hyperalgesia and/or nerve conduction velocity deficits. In separate experiments, onset of treatment was delayed until 60 to 90 days after STZ administration. Nerve conduction velocity or withdrawal response to thermal stimulation of hind paws was measured at intervals, usually bi-weekly for thermal response and monthly for nerve conduction velocity.
Sensory and motor nerve conduction velocities were evaluated using the method of De Koning and Gispen (Peptides 8: 415–422, 1987). Electrophysiological evaluation was carried out within one hour of dosing. Animals were anesthetized with isoflurane and stimulating needle electrodes were inserted close to the sciatic nerve at the sciatic notch and the tibial nerve near the ankle. Recording electrodes were placed over the foot muscles. Stimuli were applied and responses recorded. Motor and sensory nerve conduction velocities were calculated by measuring the distance between the sciatic notch and ankle sites, and the latency between the M-wave and the H-reflex.
Animals were acclimated to the apparatus for at least 5 min. An infra-red source was placed under below the plantar surface of the rat hind-paw. The intensity of the source was adjusted so that latency for normal rats was about 10 secs. Animals were tested for thermal response latency according to the method of Hargreaves et al (Pain 77–88, 1988). Each animal was tested 8 times (4 each hind limb) and the latency of response recorded automatically to nearest 0.1 sec. An average of the last 4 measurements for each paw was calculated (8 total measurements) and noted for each rat.

T1 sequence (Q04609 whole entry): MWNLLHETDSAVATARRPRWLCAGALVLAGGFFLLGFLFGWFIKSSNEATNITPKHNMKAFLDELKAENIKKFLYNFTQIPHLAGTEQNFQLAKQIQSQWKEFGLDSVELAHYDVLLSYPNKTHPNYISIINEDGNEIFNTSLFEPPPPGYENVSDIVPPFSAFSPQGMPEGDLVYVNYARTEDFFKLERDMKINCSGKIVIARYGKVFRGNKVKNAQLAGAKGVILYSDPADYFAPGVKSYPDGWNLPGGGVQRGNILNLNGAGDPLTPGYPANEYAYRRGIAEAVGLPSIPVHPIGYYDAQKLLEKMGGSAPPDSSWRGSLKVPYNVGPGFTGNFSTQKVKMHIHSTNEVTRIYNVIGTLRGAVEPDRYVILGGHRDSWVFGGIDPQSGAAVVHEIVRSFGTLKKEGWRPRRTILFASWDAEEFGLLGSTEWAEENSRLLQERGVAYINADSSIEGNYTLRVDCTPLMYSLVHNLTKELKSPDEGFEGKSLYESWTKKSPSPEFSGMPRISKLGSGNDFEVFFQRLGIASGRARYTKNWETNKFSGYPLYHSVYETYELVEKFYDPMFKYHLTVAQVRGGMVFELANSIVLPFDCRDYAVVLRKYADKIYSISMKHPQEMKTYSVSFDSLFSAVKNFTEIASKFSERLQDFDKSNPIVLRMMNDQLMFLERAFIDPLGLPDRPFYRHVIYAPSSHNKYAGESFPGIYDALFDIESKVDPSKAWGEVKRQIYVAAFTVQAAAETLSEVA

Compound: O=C(O)c1[nH]c2ccccc2c1CCS [Compound 1, 3-(2-mercaptoethyl)-1H-indole-2-carboxylic acid]
IC50 (NAALADase): 1240 nM

Compound: O=C(O)c1[nH]c2c(C(=O)O)cccc2c1CCS [Compound 2, 3-(2-mercaptoethyl)-1H-indole-2,7-dicarboxylic acid]
IC50 (NAALADase): 760 nM

Compound: O=C(O)c1ccc(Br)c(Cn2c(C(=O)O)c(CCS)c3ccccc32)c1 [Compound 4, 1-[(2-bromo-5-carboxyphenyl)methyl]-3-(2-mercaptoethyl)-1H-indole-2-carboxylic acid]
IC50 (NAALADase): 54.3 nM

Compound: O=C(O)c1ccc(Cn2c(C(=O)O)c(CCS)c3ccccc32)cc1 [Compound 5, 1-[(4-carboxyphenyl)methyl]-3-(2-mercaptoethyl)-1H-indole-2-carboxylic acid]
IC50 (NAALADase): 66.5 nM

Compound: CC(C)(C)c1cc(Cn2c(C(=O)O)c(CCS)c3ccccc32)cc(C(=O)O)c1 [Compound 8, 1-[[3-carboxy-5-(1,1-dimethylethyl)-phenyl]methyl]-3-(2-mercaptoethyl)-1H-indole-2-carboxylic acid]
IC50 (NAALADase): 35 nM

Compound: O=C(O)c1cc(Cn2c(C(=O)O)c(CCS)c3ccccc32)ccc1Br [Compound 9, 1-[(4-bromo-3-carboxyphenyl)methyl]-3-(2-mercaptoethyl)-1H-indole-2-carboxylic acid]
IC50 (NAALADase): 104 nM

Compound: COc1ccc(C(=O)O)c(Cn2c(C(=O)O)c(CCS)c3ccccc32)c1 [Compound 10, 1-[(2-carboxy-5-methoxyphenyl)methyl]-3-(2-mercaptoethyl)-1H-indole-2-carboxylic acid]
IC50 (NAALADase): 12 nM

Compound: O=C(O)CCC(CCS)C(=O)O (stereo not shown) [Compound D, 2-(2-sulfanylethyl)-pentanedioic acid]
motor and sensory nerve conduction velocities (STZ-diabetic rats [1]; 1 mg/kg): increased
motor and sensory nerve conduction velocities (STZ-diabetic rats [1]; 10 mg/kg daily, 4, 8 and 12 weeks): increased
hyperalgesic response (withdrawal latency difference score) (STZ-diabetic rats [2]): completely reversed
nerve conduction velocity deficits versus diabetic vehicle controls (BB/W diabetic rats; 10 mg/kg daily, from 8 weeks to six months): significantly less severe nerve conduction deficits
withdrawal latency versus diabetic vehicle-treated rats (BB/W diabetic rats; 10 mg/kg i.p. daily, from 4 weeks through six months of treatment): longer withdrawal latencies
sensory and motor nerve conduction velocity deficits (STZ-diabetic rats [3]; STZ rats untreated until 60 days after STZ, external CRO): Partial reversal
neuropathic pain abnormalities (STZ-diabetic rats [3]; STZ rats, 1 and 3 mg/kg, treatment from 7 weeks post STZ): Significant reduction
motor nerve conduction (STZ-diabetic rats [3]; STZ rats, 1 and 3 mg/kg, treatment from 7 weeks post STZ, 8 weeks after dosing): remained unimproved
sensory nerve conduction (STZ-diabetic rats [3]; STZ rats, 1 and 3 mg/kg, treatment from 7 weeks post STZ, within 4 weeks of treatment): significantly improved towards normal
neuropathic hyperalgesia (STZ-diabetic rats [3]; STZ rats): reversed towards normal
motor nerve conduction velocity (STZ-diabetic rats [3]; STZ rats): reversed the motor nerve conduction velocity towards normal

Compound: O=C(O)c1cccc(CC(CCCS)C(=O)O)c1 (stereo not drawn) [Compound E, 3-carboxy-alpha-(3-mercaptopropyl)benzenepropanoic acid]
neuropathic hyperalgesia (STZ-diabetic rats [3]; STZ rats): reversed towards normal
motor nerve conduction velocity (STZ-diabetic rats [3]; STZ rats): reversed the motor nerve conduction velocity towards normal

Continued, values first:

IC50 (NAALADase): 55.3 nM
Compound: O=C(O)c1cccc(Cn2c(C(=O)O)c(CCS)c3ccccc32)c1 [Compound 3, 1-[(3-carboxyphenyl)methyl]-3-(2-mercaptoethyl)-1H-indole-2-carboxylic acid]

IC50 (NAALADase): 12100 nM
Compound: O=C(O)c1c(CCS)c2ccccc2n1Cc1ccccc1 [Compound 6, 3-(2-mercaptoethyl)-1-(phenylmethyl)-1H-indole-2-carboxylic acid]

IC50 (NAALADase): 18.5 nM
Compound: O=C(O)c1ccccc1Cn1c(C(=O)O)c(CCS)c2ccccc21 [Compound 7, 1-[(2-carboxyphenyl)methyl]-3-(2-mercaptoethyl)-1H-indole-2-carboxylic acid]

IC50 (NAALADase): 4740 nM
Compound: O=C(O)c1c(CCS)c2ccccc2n1-c1ccccc1 [Compound 11, 3-(2-mercaptoethyl)-1-phenyl-1H-indole-2-carboxylic acid]

IC50 (NAALADase): 44000 nM
Compound: O=C(O)c1c(CCS)c2ccccc2n1CCc1ccccc1 [Compound 12, 3-(2-mercaptoethyl)-1-(2-phenylethyl)-1H-indole-2-carboxylic acid]
